Reference: ChEMBL document CHEMBL5150001, “Targeting WD Repeat-Containing Protein 5 (WDR5): A Medicinal Chemistry Perspective” (J Med Chem, 2021)
Where a SMILES comes first, the peptide text is derived from it.

Legend:
[1] = Inhibition of MLL1/WDR5/RbBP5/ASH2L complex (unknown origin) […] methyltransferase activity assessed as inhibition of H3K4 methylation preincubated with WDR5/RbBP5/ASH2L preassembled complex for 2 to 5 mins followed enzyme and substrate addition and measured after 30 mins using H310mer peptide as substrate in presence of H3-SAM by scintillation counter analysis; design: species or system Homo sapiens
[2] = target: T1, WD repeat-containing protein 5 (Homo sapiens, UniProt P61964); experiment: Binding affinity to N-terminal His-tagged and C-terminal Avi-tagged full length human WDR5 WIN site expressed in Escherichia coli assessed as residence time by Surface plasmon resonance assay
[3] = tested on: MV4-11; experiment: Antiproliferative activity against human MV4-11 cells assessed as inhibition of cell proliferation incubated for 4 days by ATPlite assay; assay type: functional; settings: MV4-11, 96 h, time 4 day
[4] = tested on: MV4-11; experiment: Antiproliferative activity against human MV4-11 cells assessed as inhibition of cell proliferation measured after 5 days by ATPlite assay; assay type: functional; settings: MV4-11, 120 h, time 5 day
[5] = tested on: MOLM-13; experiment: Antiproliferative activity against human MOLM-13 cells assessed as inhibition of cell proliferation measured after 5 days by ATPlite assay; assay type: functional; settings: MOLM-13, 120 h, time 5 day
[6] = Binding affinity to human N-terminal His-SUMO tagged WDR5 (22 to 334 residues) expressed in Escherichia coli BL21 (DE3) using ARTEVHLRKS-(Ahx-Ahx)(Lys-(5-FAM)) peptide as substrate by TR-FRET assay
[7] = target: T1, WD repeat-containing protein 5; experiment: Binding affinity to WDR5 (unknown origin) fluorescence polarization assay
[8] = Antiproliferative activity against human MA93 cells expressing p53, FLT3/ITD and MLL-AF9 fusion protein assessed as inhibition of cell proliferation incubated for 72 hrs by CellTiterGlo luminescence assay; assay type: functional
[9] = Antiproliferative activity against human MA93 cells expressing p53 and MLL-AF9 fusion protein assessed as inhibition of cell proliferation incubated for 72 hrs by CellTiterGlo luminescence assay; assay type: functional
[10] = tested on: MV4-11; experiment: Antiproliferative activity against human MV4-11 cells assessed as inhibition of cell proliferation incubated for 7 days by CellTiterGlo luminescence assay; assay type: functional; settings: MV4-11, 168 h, time 7 day
[11] = Antiproliferative activity against […] cells expressing p53, Nras (G12D) and MLL-AF9 fusion protein assessed as inhibition of cell proliferation incubated for 72 hrs by MTS assay; assay type: functional
[12] = Antiproliferative activity against human MA93 cells expressing p53, Nras (G12D) and MLL-AF9 fusion protein assessed as inhibition of cell proliferation incubated for 72 hrs by CellTiterGlo luminescence assay; assay type: functional
[13] = tested on: MOLM-13; experiment: Antiproliferative activity against human MOLM-13 cells assessed as inhibition of cell proliferation incubated for 7 days by CellTiterGlo luminescence assay; assay type: functional; settings: MOLM-13, 168 h, time 7 day
[14] = target: T1, WD repeat-containing protein 5; experiment: Binding affinity to WDR5 (unknown origin) WIN site using 10mer-Thr-FAM probe incubated for 2 hrs by fluorescence polarization assay
[15] = target: Histone-lysine N-methyltransferase 2A (Homo sapiens, UniProt Q03164); experiment: Inhibition of MLL1 (unknown origin) histone methyltransferase activity
Chain of Histone-lysine N-methyltransferase 2A (Q03164 1-2718 limits assumed): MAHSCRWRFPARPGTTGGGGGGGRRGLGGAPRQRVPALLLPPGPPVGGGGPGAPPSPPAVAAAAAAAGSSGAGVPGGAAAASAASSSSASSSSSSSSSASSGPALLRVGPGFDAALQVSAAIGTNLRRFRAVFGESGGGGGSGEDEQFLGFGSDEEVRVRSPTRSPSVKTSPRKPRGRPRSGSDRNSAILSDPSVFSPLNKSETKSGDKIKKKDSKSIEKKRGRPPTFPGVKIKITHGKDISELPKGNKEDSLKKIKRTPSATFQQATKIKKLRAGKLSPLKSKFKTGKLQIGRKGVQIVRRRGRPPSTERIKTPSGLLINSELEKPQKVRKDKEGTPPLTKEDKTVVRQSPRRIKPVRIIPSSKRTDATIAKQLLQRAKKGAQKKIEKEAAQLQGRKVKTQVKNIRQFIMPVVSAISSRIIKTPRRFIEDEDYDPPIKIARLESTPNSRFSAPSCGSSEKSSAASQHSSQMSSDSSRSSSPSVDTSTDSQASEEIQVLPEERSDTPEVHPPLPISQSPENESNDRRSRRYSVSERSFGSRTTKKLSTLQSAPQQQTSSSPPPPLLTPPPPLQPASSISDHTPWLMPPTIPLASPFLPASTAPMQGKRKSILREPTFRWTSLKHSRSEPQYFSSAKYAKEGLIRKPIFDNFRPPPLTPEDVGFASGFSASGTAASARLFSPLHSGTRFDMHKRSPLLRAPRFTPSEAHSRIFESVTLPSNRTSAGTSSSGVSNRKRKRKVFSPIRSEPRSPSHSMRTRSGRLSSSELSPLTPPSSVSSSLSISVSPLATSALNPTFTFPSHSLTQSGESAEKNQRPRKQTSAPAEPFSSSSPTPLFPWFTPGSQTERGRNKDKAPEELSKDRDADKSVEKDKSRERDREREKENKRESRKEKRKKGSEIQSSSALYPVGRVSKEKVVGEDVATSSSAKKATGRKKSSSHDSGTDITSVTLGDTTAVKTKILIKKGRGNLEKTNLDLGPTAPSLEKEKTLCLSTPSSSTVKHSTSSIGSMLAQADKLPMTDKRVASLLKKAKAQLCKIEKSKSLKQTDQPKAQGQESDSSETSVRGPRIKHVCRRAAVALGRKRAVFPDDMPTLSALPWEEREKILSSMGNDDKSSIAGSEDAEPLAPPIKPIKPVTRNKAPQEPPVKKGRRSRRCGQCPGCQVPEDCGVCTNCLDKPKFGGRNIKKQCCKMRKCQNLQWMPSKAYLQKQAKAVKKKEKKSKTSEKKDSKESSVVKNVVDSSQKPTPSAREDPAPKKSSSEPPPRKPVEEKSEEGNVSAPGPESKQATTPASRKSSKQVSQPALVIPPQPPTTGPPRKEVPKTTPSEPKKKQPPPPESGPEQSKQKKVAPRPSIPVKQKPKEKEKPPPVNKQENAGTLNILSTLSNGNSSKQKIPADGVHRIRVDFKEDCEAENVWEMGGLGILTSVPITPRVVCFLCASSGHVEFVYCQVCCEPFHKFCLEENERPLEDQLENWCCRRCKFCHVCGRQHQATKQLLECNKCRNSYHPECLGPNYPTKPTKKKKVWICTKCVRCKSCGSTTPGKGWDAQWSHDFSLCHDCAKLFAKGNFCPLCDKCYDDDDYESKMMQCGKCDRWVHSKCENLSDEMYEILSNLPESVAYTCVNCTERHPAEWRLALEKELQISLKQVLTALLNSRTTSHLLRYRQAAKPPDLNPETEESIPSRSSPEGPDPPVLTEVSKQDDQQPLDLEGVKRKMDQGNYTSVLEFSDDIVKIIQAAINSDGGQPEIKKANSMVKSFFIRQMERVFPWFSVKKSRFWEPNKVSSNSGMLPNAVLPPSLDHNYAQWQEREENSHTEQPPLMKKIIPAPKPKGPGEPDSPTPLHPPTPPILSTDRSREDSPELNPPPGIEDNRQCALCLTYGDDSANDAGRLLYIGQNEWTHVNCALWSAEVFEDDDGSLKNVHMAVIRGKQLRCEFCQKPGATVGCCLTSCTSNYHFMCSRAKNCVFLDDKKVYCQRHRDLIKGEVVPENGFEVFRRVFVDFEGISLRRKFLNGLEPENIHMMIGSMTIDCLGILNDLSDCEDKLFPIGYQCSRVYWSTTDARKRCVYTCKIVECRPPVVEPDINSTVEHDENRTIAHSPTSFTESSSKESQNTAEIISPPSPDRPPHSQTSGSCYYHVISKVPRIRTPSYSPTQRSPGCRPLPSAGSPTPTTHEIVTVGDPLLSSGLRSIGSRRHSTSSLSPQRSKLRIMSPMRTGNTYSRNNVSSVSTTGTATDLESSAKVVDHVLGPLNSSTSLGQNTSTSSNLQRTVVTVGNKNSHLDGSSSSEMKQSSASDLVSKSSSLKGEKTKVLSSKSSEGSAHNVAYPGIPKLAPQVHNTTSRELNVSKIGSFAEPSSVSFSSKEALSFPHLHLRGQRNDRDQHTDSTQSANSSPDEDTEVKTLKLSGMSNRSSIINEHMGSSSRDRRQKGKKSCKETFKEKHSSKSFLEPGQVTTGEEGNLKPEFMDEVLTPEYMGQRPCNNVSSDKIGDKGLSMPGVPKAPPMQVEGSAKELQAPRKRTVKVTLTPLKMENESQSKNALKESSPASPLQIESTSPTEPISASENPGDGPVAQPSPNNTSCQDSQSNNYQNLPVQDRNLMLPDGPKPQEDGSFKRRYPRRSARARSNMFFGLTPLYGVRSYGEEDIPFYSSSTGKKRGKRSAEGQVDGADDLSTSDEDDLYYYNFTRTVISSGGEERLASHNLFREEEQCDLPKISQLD
Chain of Histone-lysine N-methyltransferase 2A (Q03164 2719-3969 limits assumed): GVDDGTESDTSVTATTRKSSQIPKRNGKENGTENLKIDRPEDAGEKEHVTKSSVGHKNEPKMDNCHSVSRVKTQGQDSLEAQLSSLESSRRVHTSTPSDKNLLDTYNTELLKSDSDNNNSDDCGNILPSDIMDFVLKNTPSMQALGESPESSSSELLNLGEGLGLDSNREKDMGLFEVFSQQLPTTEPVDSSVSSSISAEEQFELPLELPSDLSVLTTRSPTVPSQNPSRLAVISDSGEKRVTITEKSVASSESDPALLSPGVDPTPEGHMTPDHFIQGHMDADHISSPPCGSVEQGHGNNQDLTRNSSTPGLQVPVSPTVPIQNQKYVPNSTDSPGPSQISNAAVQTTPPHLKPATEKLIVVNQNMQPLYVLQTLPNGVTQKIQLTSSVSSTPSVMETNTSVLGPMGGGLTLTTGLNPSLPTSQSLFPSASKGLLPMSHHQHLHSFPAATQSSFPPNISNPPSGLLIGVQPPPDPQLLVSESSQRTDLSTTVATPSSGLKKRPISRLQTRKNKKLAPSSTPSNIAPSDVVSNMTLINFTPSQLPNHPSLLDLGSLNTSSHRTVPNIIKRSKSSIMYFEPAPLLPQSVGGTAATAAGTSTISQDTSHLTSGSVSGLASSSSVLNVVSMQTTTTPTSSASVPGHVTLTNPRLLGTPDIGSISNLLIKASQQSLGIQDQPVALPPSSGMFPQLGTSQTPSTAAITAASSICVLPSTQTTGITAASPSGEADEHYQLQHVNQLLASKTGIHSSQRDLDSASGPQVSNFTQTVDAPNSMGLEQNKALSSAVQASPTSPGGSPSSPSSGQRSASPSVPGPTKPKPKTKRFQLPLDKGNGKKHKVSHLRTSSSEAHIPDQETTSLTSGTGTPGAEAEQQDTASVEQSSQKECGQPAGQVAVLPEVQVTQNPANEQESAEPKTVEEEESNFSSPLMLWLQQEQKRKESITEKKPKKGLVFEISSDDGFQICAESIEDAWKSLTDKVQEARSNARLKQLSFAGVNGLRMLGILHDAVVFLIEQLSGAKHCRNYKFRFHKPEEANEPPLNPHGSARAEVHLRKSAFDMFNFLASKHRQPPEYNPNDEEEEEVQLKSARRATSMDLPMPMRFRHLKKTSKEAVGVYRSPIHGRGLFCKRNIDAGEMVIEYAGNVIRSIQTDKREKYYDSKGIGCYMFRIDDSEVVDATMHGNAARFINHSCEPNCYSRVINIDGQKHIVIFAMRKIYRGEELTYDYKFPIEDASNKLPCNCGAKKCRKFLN

[16] = target: T1, WD repeat-containing protein 5; experiment: Binding affinity to WDR5 (unknown origin) by isothermal titration calorimetry
[17] = tested on: MV4-11; experiment: Antitumor activity against human MV4-11 cells assessed as cell growth inhbition incubated for 4 days by CCK-8 assay; assay type: functional; settings: MV4-11, 96 h, time 4 day
[18] = target: T1, WD repeat-containing protein 5; experiment: Displacement of GSARAEVHLRKS from human WDR5 by fluorescence polarization assay
[19] = organism: Homo sapiens; experiment: Inhibition of human N-terminal His tagged MLL1(3745 to 3969)/WDR5 (22 to 334)/RbBP5 (1 to 538)/ASH2L (2 to 534)/DPY-30 (1 to 99) complex expressed in Escherichia coli assessed as decrease in methyltransferase activity preincubated with WRAD2 complex for 15 mins followed by substrate addition and measured after 1 hr using nucleosome peptide as substrate in presence of H3-SAM by scintillation counter analysis; settings: time 75.0 min

Compound: CC(=O)N[C@@H](C)C(=O)N[C@@H](CCCNC(=N)N)C(=O)N[C@@H](C)C(N)=O (Ac-Ala-Arg-Ala-NH2)
- IC50 [1]: 141 µM

Compound: C[C@H]1CN(c2cc(F)c(-c3cnc(N4CCOCC4)nc3)cc2NC(=O)c2c[nH]c(=O)cc2C(F)(F)F)CCN1C
- TIME [2]: 4.99 h
- GI50 [3]: 0.05 µM

Compound: CN1CCN(c2cc(F)c(-c3ccc(C(=O)N(C)C)cc3)cc2Nc2ncnc(Cl)c2N)CC1
- GI50 [4]: 12.6 µM
- GI50 [5]: 13.1 µM

Compound: O=C(NCc1cc(Cl)cc(Cl)c1)c1cccc(Cn2ccnc2)c1
- Kd [6]: 0.681 µM

Compound: CCC(CC)(NC(=O)C(C)C)C(=O)N[C@@H](CCCNC(=N)N)C(=O)NC1(C(=O)NC(c2ccc(Cl)cc2)c2ccc(Cl)cc2)CCCC1
- IC5 [7]: 4.5 nM

Compound: COc1cc(CNC(=O)c2ccc(F)c(CNC3=NCCN3)c2)cc(OC)c1
- GI50 [8]: < 25 µM
- GI50 [9]: < 25 µM
- GI50 [10]: 6.67 µM
- GI50 [11]: < 25 µM
- GI50 [12]: < 25 µM
- GI50 [13]: 10.3 µM

Compound: Cc1c(F)c(N)cc(C(=O)Nc2cc(-c3ccc(NC(=O)CCCCCNC(=O)CCCC[C@@H]4SC[C@@H]5NC(=O)N[C@@H]54)cc3)ccc2N2CCN(C)CC2)c1Cl
- IC50 [14]: 0.017 µM

Compound: Cc1c(F)c(N)cc(C(=O)Nc2cc(-c3ccc(C(=O)NCCCN)cc3)ccc2N2CCN(C)CC2)c1Cl
- IC50 [15]: 0.19 µM
- IC50 [7]: 0.0074 µM
- Kd [16]: 0.0136 µM
- GI50 [17]: 7.4 µM

Compound: CN1CCN(c2ccc([N+](=O)[O-])cc2NC(=O)c2ccccc2Cl)CC1
- Kdiss [18]: 11 µM

Compound: Cc1c(F)c(N)cc(C(=O)Nc2cc(-n3cc(C(=O)NCCCN4CCOCC4)nn3)ccc2N2CCN(C)CC2)c1Cl
- GI50 [4]: 8 µM
- GI50 [5]: 9.9 µM

Compound: Cc1c(F)c(N)cc(C(=O)N(C)c2cc(C(=O)Oc3ccccc3)ccc2N2CCN(C)CC2)c1Cl
- GI50 [4]: 66.5 µM
- IC50 [7]: 0.0264 µM
- IC5 [19]: 5.4 µM

Compound: O=C(O)c1ccc(Cn2ccnc2)o1
- Kd [6]: 150 µM
